Literature values in patent US20260097000A1, “INTRANASAL DELIVERY OF CANNABINOIDS” (priority 2022, published 2026).

Columns and labels:
[1] = oral delivery
[2] = rats, oral 10 mg kg^−1 and pulmonary 20 mg kg^−1

C=C(C)[C@@H]1CCC(C)=C[C@H]1c1c(O)cc(CCCCC)cc1O [CBD, cannabidiol]
7-hydroxy-cannabidiol (7-OH-CBD) metabolite share of orally delivered CBD [1]: 40% | CBD levels in the brain [2]: 200 to 300 ng/g
